Assay results as given in ChEMBL document CHEMBL1201862, “PubChem BioAssay data set” (2004).
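Tested at 5 concentrations; 48 h exposure; 96-well plates; endpoints linearly interpolated, else capped at highest concentration. GI50 = concentration required for 50% inhibition of growth.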 Calls of active or inactive are those of the source. Rule as the data show it: active = GI50 up to about 1.1 µM and inactive = higher.

Legend:
Assay in all cases: NCI tumour cell line growth inhibition, 48 h
Hs-578T = tested on: Hs-578T
MDA-N = tested on: MDA-N
TK-10 = tested on: TK-10
SF-295 = tested on: SF-295
OVCAR-8 = tested on: OVCAR-8
IGROV-1 = tested on: IGROV-1
KM12 = tested on: KM12
HOP-62 = tested on: HOP-62
OVCAR-3 = tested on: OVCAR-3
UACC-257 = tested on: UACC-257
SK-MEL-2 = tested on: SK-MEL-2
OVCAR-5 = tested on: OVCAR-5
MDA-MB-435 = tested on: MDA-MB-435
Malme-3M = tested on: Malme-3M
M14 = tested on: M14
MOLT-4 = tested on: MOLT-4
RPMI-8226 = tested on: RPMI-8226
UO-31 = tested on: UO-31
EKVX = tested on: EKVX
K562 = tested on: K562
HL-60 = tested on: HL-60
MDA-MB-231 = tested on: MDA-MB-231
SN12C = tested on: SN12C
U-251 = tested on: U-251
SW-620 = tested on: SW-620
SF-268 = tested on: SF-268
A498 = tested on: A498
NCI-H226 = tested on: NCI-H226
CAKI-1 = tested on: CAKI-1
RXF 393 = tested on: RXF 393
HT-29 = tested on: HT-29
UACC-62 = tested on: UACC-62
T47D = tested on: T47D
HCT-15 = tested on: HCT-15
ACHN = tested on: ACHN
SF-539 = tested on: SF-539
LOX IMVI = tested on: LOX IMVI
COLO 205 = tested on: COLO 205
NCI-H460 = tested on: NCI-H460
SK-MEL-28 = tested on: SK-MEL-28
SK-OV-3 = tested on: SK-OV-3
NCI-H23 = tested on: NCI-H23
BT-549 = tested on: BT-549
SK-MEL-5 = tested on: SK-MEL-5
SNB-19 = tested on: SNB-19
786-0 = tested on: 786-0
DU-145 = tested on: DU-145
PC-3 = tested on: PC-3
CCRF-CEM = tested on: CCRF-CEM
HCT-116 = tested on: HCT-116
MCF7 = tested on: MCF7
NCI/ADR-RES = tested on: NCI/ADR-RES
A549 = tested on: A549
SNB-75 = tested on: SNB-75
OVCAR-4 = tested on: OVCAR-4
HCC 2998 = tested on: HCC 2998
SR = tested on: SR
HOP-92 = tested on: HOP-92
NCI-H522 = tested on: NCI-H522

With `O=C(c1cccs1)N(C(=O)N1CCC(c2ccccc2)CC1)c1ccccc1` the GI50 (Hs-578T) was 27.5 µM (inactive), the GI50 (MDA-N) was 43.8 µM (inactive) and the GI50 (TK-10) was 67 µM (inactive). For the same compound, the GI50 (SF-295) was 42.7 µM (inactive), the GI50 (OVCAR-8) was 39.4 µM (inactive) and the GI50 (IGROV-1) was 14.7 µM (inactive). For the same compound, the GI50 (KM12) was 14.4 µM (inactive), the GI50 (HOP-62) was 36 µM (inactive) and the GI50 (OVCAR-3) was 53.6 µM (inactive). The GI50 (UACC-257) was 40 µM (inactive), the GI50 (SK-MEL-2) was 13.8 µM (inactive) and the GI50 (OVCAR-5) was > 100 µM (inactive). For the same compound, the GI50 (MDA-MB-435) was 29.4 µM (inactive), the GI50 (Malme-3M) was 15.8 µM (inactive) and the GI50 (M14) was 40.6 µM (inactive). For the same compound, the GI50 (MOLT-4) was 34.8 µM (inactive), the GI50 (RPMI-8226) was 12.6 µM (inactive) and the GI50 (UO-31) was 18 µM (inactive). For the same compound, the GI50 (EKVX) was 7.67 µM (inactive), the GI50 (K562) was 22.7 µM (inactive) and the GI50 (HL-60) was 28.8 µM (inactive). The GI50 (MDA-MB-231) was > 100 µM (inactive), the GI50 (SN12C) was 62.2 µM (inactive) and the GI50 (U-251) was 46 µM (inactive). For the same compound, the GI50 (SW-620) was 51.5 µM (inactive), the GI50 (SF-268) was 73.6 µM (inactive) and the GI50 (A498) was 51.4 µM (inactive). For the same compound, the GI50 (NCI-H226) was 34 µM (inactive), the GI50 (CAKI-1) was > 100 µM (inactive) and the GI50 (RXF 393) was 16.8 µM (inactive). The GI50 (HT-29) was 25.4 µM (inactive), the GI50 (UACC-62) was 50.6 µM (inactive) and the GI50 (T47D) was 26.1 µM (inactive). For the same compound, the GI50 (HCT-15) was 28.1 µM, the GI50 (ACHN) was 63.1 µM (inactive) and the GI50 (SF-539) was > 100 µM (inactive). The GI50 (LOX IMVI) was 41.5 µM (inactive), the GI50 (COLO 205) was 27.2 µM (inactive) and the GI50 (NCI-H460) was 43.7 µM (inactive). The GI50 (SK-MEL-28) was 43.9 µM (inactive), the GI50 (SK-OV-3) was 88.3 µM (inactive) and the GI50 (NCI-H23) was 40.6 µM (inactive). The GI50 (BT-549) was 27 µM (inactive), the GI50 (SK-MEL-5) was 16.8 µM (inactive) and the GI50 (SNB-19) was > 100 µM (inactive). The GI50 (786-0) was > 100 µM (inactive), the GI50 (DU-145) was > 100 µM (inactive) and the GI50 (PC-3) was 0.873 µM (active). The GI50 (CCRF-CEM) was 95.5 µM (inactive), the GI50 (HCT-116) was 42.5 µM (inactive) and the GI50 (MCF7) was 35.5 µM (inactive). For the same compound, the GI50 (NCI/ADR-RES) was 24.8 µM (inactive).
In the case of `CC(=O)OCC12C(OC(C)=O)C(=O)C3C(OC(C)=O)C14OC3(C)COC(=O)c1cccnc1C(C)C(C)C(=O)OC(C(OC(C)=O)C2OC(C)=O)C4(C)O` (stereo not given), the GI50 (Hs-578T) is reported as > 100 µM (inactive), the GI50 (MDA-N) is reported as > 100 µM (inactive) and the GI50 (TK-10) is reported as > 100 µM (inactive). The GI50 (SF-295) was > 100 µM (inactive), the GI50 (A549) was > 100 µM (inactive) and the GI50 (SNB-75) was > 100 µM (inactive). The GI50 (OVCAR-8) was > 100 µM (inactive), the GI50 (IGROV-1) was > 100 µM (inactive) and the GI50 (KM12) was > 100 µM (inactive). The GI50 (HOP-62) was > 100 µM (inactive), the GI50 (OVCAR-3) was > 100 µM (inactive) and the GI50 (UACC-257) was > 100 µM (inactive). For the same compound, the GI50 (SK-MEL-2) was > 100 µM (inactive), the GI50 (OVCAR-4) was > 100 µM (inactive) and the GI50 (OVCAR-5) was > 100 µM (inactive). The GI50 (MDA-MB-435) was > 100 µM (inactive), the GI50 (HCC 2998) was > 100 µM (inactive) and the GI50 (Malme-3M) was > 100 µM (inactive). The GI50 (M14) was > 100 µM (inactive), the GI50 (MOLT-4) was 52.2 µM (inactive) and the GI50 (RPMI-8226) was > 100 µM (inactive). For the same compound, the GI50 (UO-31) was > 100 µM (inactive), the GI50 (EKVX) was > 100 µM (inactive) and the GI50 (K562) was > 100 µM (inactive). The GI50 (HL-60) was > 100 µM (inactive), the GI50 (MDA-MB-231) was > 100 µM (inactive) and the GI50 (SN12C) was > 100 µM (inactive). For the same compound, the GI50 (U-251) was > 100 µM (inactive), the GI50 (SW-620) was > 100 µM (inactive) and the GI50 (SF-268) was > 100 µM (inactive). For the same compound, the GI50 (A498) was > 100 µM (inactive), the GI50 (NCI-H226) was > 100 µM (inactive) and the GI50 (CAKI-1) was > 100 µM (inactive). The GI50 (RXF 393) was > 100 µM (inactive), the GI50 (HT-29) was > 100 µM (inactive) and the GI50 (UACC-62) was > 100 µM (inactive). For the same compound, the GI50 (T47D) was > 100 µM (inactive), the GI50 (SR) was 42.6 µM (inactive) and the GI50 (HCT-15) was over 100 µM. For the same compound, the GI50 (ACHN) was > 100 µM (inactive), the GI50 (SF-539) was > 100 µM (inactive) and the GI50 (LOX IMVI) was > 100 µM (inactive). The GI50 (COLO 205) was > 100 µM (inactive), the GI50 (NCI-H460) was > 100 µM (inactive) and the GI50 (HOP-92) was > 100 µM (inactive). The GI50 (SK-MEL-28) was > 100 µM (inactive), the GI50 (NCI-H522) was > 100 µM (inactive) and the GI50 (SK-OV-3) was > 100 µM (inactive). The GI50 (NCI-H23) was > 100 µM (inactive), the GI50 (BT-549) was > 100 µM (inactive) and the GI50 (SK-MEL-5) was > 100 µM (inactive). The GI50 (SNB-19) was > 100 µM (inactive), the GI50 (786-0) was > 100 µM (inactive) and the GI50 (DU-145) was > 100 µM (inactive). The GI50 (PC-3) was > 100 µM (inactive), the GI50 (CCRF-CEM) was > 100 µM (inactive) and the GI50 (HCT-116) was > 100 µM (inactive). For the same compound, the GI50 (MCF7) was > 100 µM (inactive).
